Results on five compounds are retold here after patent US20260242419A1, “A CYCLIC PEPTIDE FOR TRAPPING INTERLEUKIN-1 BETA” (Merck Sharp & Dohme LLC, priority 2023, published 2026).

For the experiment, the target named is T1, IL-1β (Homo sapiens, UniProt P01584).
T1 construct: purchased BioLegend 579404
Nature of the experiment: IL-6 assay in MRC5 cells: inhibition of IL-1β induced IL-6 secretion (AlphaLISA). The following applies: inhibition of IL-1β induced IL-6 secretion in MRC5 cells; read-out: MRC5 IC50. The class given is cell-based. In a few lines:
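Compound was pre-incubated 1 h at ambient temperature with recombinant human IL-1β at 2λ EC80 before adding human lung fibroblast MRC5 cells (3000/well) in EMEM with 0.025% BSA. After overnight culture at 37 °C, 5% CO2, secreted IL-6 in conditioned medium was measured by AlphaLISA; IC50 from 4-parameter logistic fits.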
A general note: In Alpha technology, singlet oxygen from a donor bead excites a nearby acceptor bead.

Starred links: 1 amine or outer side, 2 acyl side, 3 side chain; linkers in the order of their positions; H or OH if unused. Non-standard residues stand in square brackets, D forms with d. Residues, ends and D or L forms follow the SMILES beside them. Trp(βS-Me,4-F) = C[C@@H](c1c[nH]c2cccc(F)c12)[C@H](N)C(=O)O; Bip(4'-COOH) = N[C@@H](Cc1ccc(-c2ccc(C(=O)O)cc2)cc1)C(=O)O; Ala(1-bicyclo(1.1.1)pentyl) = N[C@@H](CC12CC(C1)C2)C(=O)O; dPro(4R-Bzl(4-F)) = O=C(O)[C@H]1C[C@@H](Cc2ccc(F)cc2)CN1; X19 = O=C([C@H]1C[C@@H](Cc2ccc(Br)cc2)CN1[*:1])[*:2]; Ala(pyrimidin-5-yl) = N[C@@H](Cc1cncnc1)C(=O)O; Phe(4-COOH) = N[C@@H](Cc1ccc(C(=O)O)cc1)C(=O)O; dαMeDab = C[C@](CCN[*:3])(N[*:1])C(=O)[*:2]; Pro(cis-4-F) = O=C(O)[C@@H]1C[C@H](F)CN1; Ala(4-THP) = N[C@@H](CC1CCOCC1)C(=O)O; d(αMeK) = C[C@@](N)(CCCCN)C(=O)O; 4Pal = N[C@@H](Cc1ccncc1)C(=O)O; αMeK = C[C@](N)(CCCCN)C(=O)O; Dab = NCC[C@H](N)C(=O)O; Aib = CC(C)(N)C(=O)O

T1 sequence (P01584 117-269): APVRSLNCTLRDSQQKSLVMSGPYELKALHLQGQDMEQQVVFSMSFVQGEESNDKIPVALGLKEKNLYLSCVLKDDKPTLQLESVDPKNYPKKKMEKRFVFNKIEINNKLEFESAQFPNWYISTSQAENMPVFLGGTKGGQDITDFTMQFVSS

Regarding `C[C@@H](c1c[nH]c2cccc(F)c12)[C@@H]1NC(=O)[C@@H]2C[C@H](F)CN2C(=O)CNC(=O)[C@H](Cc2ccc(C(=O)O)cc2)NC(=O)[C@H](Cc2ccncc2)NC(=O)[C@H](Cc2ccc(-c3ccc(C(=O)O)cc3)cc2)NC(=O)[C@H]2C[C@@H](Cc3ccc(F)cc3)CN2C(=O)CNC(=O)[C@H](CCN)NC(=O)[C@H](CCC(N)=O)NC(=O)[C@H](Cc2cncnc2)NC(=O)[C@@](C)(CCN)NC(=O)[C@H](Cc2c[nH]c3ccccc23)NC(=O)[C@H](CO)NC(=O)C(C)(C)NC1=O` [Example 142] (cyclo([Bip(4'-COOH)][4Pal][Phe(4-COOH)]G[Pro(cis-4-F)][Trp(βS-Me,4-F)][Aib]SW[dαMeDab][Ala(pyrimidin-5-yl)]Q[Dab]G[dPro(4R-Bzl(4-F))])), the 50% inhibitory concentration (IC50) worked out at 0.019 nM. To `C[C@@H](c1c[nH]c2cccc(F)c12)[C@@H]1NC(=O)[C@@H]2C[C@H](F)CN2C(=O)CNC(=O)[C@H](Cc2ccc(C(=O)O)cc2)NC(=O)[C@H](Cc2ccncc2)NC(=O)[C@H](Cc2ccc(-c3ccc(C(=O)O)cc3)cc2)NC(=O)[C@H]2C[C@@H](Cc3ccc(Br)cc3)CN2C(=O)CNC(=O)[C@H](CCN)NC(=O)[C@H](CCC(N)=O)NC(=O)[C@H](Cc2cncnc2)NC(=O)C(C)(C)NC(=O)[C@H](Cc2c[nH]c3ccccc23)NC(=O)[C@H](CCC(=O)O)NC(=O)C(C)(C)NC1=O` [Example 143] (cyclo([Bip(4'-COOH)][4Pal][Phe(4-COOH)]G[Pro(cis-4-F)][Trp(βS-Me,4-F)][Aib]EW[Aib][Ala(pyrimidin-5-yl)]Q[Dab]G[X19])) belongs 0.026 nM; to `C[C@@H](c1c[nH]c2cccc(F)c12)[C@@H]1NC(=O)[C@@H]2C[C@H](F)CN2C(=O)CNC(=O)[C@H](Cc2ccc(C(=O)O)cc2)NC(=O)[C@H](CC23CC(C2)C3)NC(=O)[C@H](Cc2ccc(-c3ccc(C(=O)O)cc3)cc2)NC(=O)[C@H]2C[C@@H](Cc3ccc(F)cc3)CN2C(=O)CNC(=O)[C@H](CCN)NC(=O)[C@H](CCC(N)=O)NC(=O)[C@H](Cc2cncnc2)NC(=O)[C@](C)(CCCCN)NC(=O)[C@H](Cc2c[nH]c3ccccc23)NC(=O)[C@H](CO)NC(=O)C(C)(C)NC1=O` [Example 144] (cyclo([Bip(4'-COOH)][Ala(1-bicyclo(1.1.1)pentyl)][Phe(4-COOH)]G[Pro(cis-4-F)][Trp(βS-Me,4-F)][Aib]SW[αMeK][Ala(pyrimidin-5-yl)]Q[Dab]G[dPro(4R-Bzl(4-F))])), 0.031 nM.

Consider `C[C@@H](c1c[nH]c2cccc(F)c12)[C@@H]1NC(=O)[C@@H]2C[C@H](F)CN2C(=O)CNC(=O)[C@H](Cc2ccc(C(=O)O)cc2)NC(=O)[C@H](CC23CC(C2)C3)NC(=O)[C@H](Cc2ccc(-c3ccc(C(=O)O)cc3)cc2)NC(=O)[C@H]2C[C@@H](Cc3ccc(F)cc3)CN2C(=O)CNC(=O)[C@H](CCN)NC(=O)[C@H](CCC(N)=O)NC(=O)[C@H](Cc2cncnc2)NC(=O)[C@@](C)(CCCCN)NC(=O)[C@H](Cc2c[nH]c3ccccc23)NC(=O)[C@H](CO)NC(=O)C(C)(C)NC1=O` [Example 145] (cyclo([Bip(4'-COOH)][Ala(1-bicyclo(1.1.1)pentyl)][Phe(4-COOH)]G[Pro(cis-4-F)][Trp(βS-Me,4-F)][Aib]SW[d(αMeK)][Ala(pyrimidin-5-yl)]Q[Dab]G[dPro(4R-Bzl(4-F))])), for which the IC50 is 0.041 nM. The value for `C[C@@H](c1c[nH]c2cccc(F)c12)[C@@H]1NC(=O)[C@@H]2C[C@H](F)CN2C(=O)CNC(=O)[C@H](Cc2ccc(C(=O)O)cc2)NC(=O)[C@H](CC23CC(C2)C3)NC(=O)[C@H](Cc2ccc(-c3ccc(C(=O)O)cc3)cc2)NC(=O)[C@H]2C[C@@H](Cc3ccc(F)cc3)CN2C(=O)CNC(=O)[C@H](CCN)NC(=O)[C@H](CCC(N)=O)NC(=O)[C@H](CC2CCOCC2)NC(=O)[C@](C)(CCCCN)NC(=O)[C@H](Cc2c[nH]c3ccccc23)NC(=O)[C@H](CO)NC(=O)C(C)(C)NC1=O` [Example 146] (cyclo([Bip(4'-COOH)][Ala(1-bicyclo(1.1.1)pentyl)][Phe(4-COOH)]G[Pro(cis-4-F)][Trp(βS-Me,4-F)][Aib]SW[αMeK][Ala(4-THP)]Q[Dab]G[dPro(4R-Bzl(4-F))])) was 0.034 nM.

By IC50 is commonly meant the point on the concentration scale where inhibition reaches its midpoint.
